This passage reports Ki results from patent publication US20110060026A1, “Indoles Active on CRTH2 Receptor” (priority 2008, published 2011).

For this test, the target named is T1, CRTH2 receptor (Homo sapiens, UniProt Q9Y5Y4).
T1 construct: expressed in transfected cells; host or cells: HEK (human embryonic kidney) cells, membrane preparation
T1 sequence (Q9Y5Y4 1-395): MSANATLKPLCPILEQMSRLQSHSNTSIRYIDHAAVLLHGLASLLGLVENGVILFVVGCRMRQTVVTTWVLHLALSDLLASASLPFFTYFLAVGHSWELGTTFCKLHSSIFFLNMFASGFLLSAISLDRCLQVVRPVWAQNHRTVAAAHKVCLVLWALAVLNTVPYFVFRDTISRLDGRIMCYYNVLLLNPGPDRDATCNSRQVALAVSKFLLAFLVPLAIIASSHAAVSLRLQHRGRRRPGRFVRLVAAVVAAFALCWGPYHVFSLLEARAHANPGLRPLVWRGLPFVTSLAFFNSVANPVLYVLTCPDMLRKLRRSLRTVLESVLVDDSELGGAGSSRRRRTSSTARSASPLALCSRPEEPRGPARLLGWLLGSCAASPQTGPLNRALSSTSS
In words: CRTH2 radioligand binding assay ([3H]-PGD2 displacement, SPA). The settings on record: HEK cell membranes expressing the CRTH2 receptor, 1 nM [3H]-PGD2; Ki from IC50 by Cheng-Prusoff equation. As to the method:
Compounds of the invention were tested using the following biological test method to determine their ability to displace PGD2 from the CRTH2 receptor.
CRTH2 Radioligand Binding Assay
The receptor binding assay is performed in a final volume of 200 μL binding buffer [10 mM BES (pH 7.4), 1 mM EDTA, 10 mM manganese chloride, 0.01% BSA] and 1 nM [^3H]-PGD2 (Amersham Biosciences UK Ltd). Ligands are added in assay buffer containing a constant amount of DMSO (1% by volume). Total binding is determined using 1% by volume of DMSO in assay buffer and non-specific binding is determined using 10 μM of unlabeled PGD2 (Sigma). Human embryonic kidney (HEK) cell membranes (3.5 μg) expressing the CRTH2 receptor are incubated with 1.5 mg wheatgerm agglutinin SPA beads and 1 nM [^3H]-PGD2 (Amersham Biosciences UK Ltd) and the mixture incubated for 3 hours at room temperature. Bound [^3H]-PGD2 is detected using a Microbeta TRILUX liquid scintillation counter (Perkin Elmer). Compound IC50 value is determined using a 6-point dose response curve in duplicate with a semi-log compound dilution series. IC50 calculations are performed using Excel and XLf it (Microsoft), and this value is used to determine a Ki value for the test compound using the Cheng-Prusoff equation.

As to `Cc1c(CC(=O)O)c2cc(F)ccc2n1Cc1ccccc1S(=O)(=O)c1ccc(F)cc1` [Example 1, {5-fluoro-1-[2-(4-fluorobenzenesulfonyl)benzyl]-2-methyl-1H-indol-3-yl}acetic acid], the Ki was 66 nM.
